Laboratory results reported in ChEMBL document CHEMBL5380857, “Discovery of Potent, Selective, and Orally Bioavailable Small-Molecule Inhibitors of CDK8 for the Treatment of Cancer” (J Med Chem, 2023).
pIC50, pKd: −log10 of the molar value.

Columns and labels:
CDK8/Cyclin C = CDK8/Cyclin C (Homo sapiens, UniProt P49336); assay: Inhibition of His tagged human recombinant CDK8/Cyclin C expressed in baculovirus expression system incubated for 15 mins by FRET-based LanthaScreen binding competition assay
Chain of CDK8/Cyclin C (P49336 whole entry): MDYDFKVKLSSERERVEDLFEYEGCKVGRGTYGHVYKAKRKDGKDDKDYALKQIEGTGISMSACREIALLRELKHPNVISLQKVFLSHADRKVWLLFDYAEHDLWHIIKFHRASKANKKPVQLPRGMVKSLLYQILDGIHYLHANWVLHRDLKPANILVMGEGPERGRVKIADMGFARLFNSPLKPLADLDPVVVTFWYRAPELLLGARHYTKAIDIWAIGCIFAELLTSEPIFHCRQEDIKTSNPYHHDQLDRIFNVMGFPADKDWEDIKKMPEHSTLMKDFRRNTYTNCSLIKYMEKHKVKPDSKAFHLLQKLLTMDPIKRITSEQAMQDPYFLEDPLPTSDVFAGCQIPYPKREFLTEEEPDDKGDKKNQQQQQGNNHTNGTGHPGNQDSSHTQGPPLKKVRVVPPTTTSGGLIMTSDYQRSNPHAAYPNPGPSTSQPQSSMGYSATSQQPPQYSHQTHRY
Chain of CDK8/Cyclin C (P24863 whole entry, further chain): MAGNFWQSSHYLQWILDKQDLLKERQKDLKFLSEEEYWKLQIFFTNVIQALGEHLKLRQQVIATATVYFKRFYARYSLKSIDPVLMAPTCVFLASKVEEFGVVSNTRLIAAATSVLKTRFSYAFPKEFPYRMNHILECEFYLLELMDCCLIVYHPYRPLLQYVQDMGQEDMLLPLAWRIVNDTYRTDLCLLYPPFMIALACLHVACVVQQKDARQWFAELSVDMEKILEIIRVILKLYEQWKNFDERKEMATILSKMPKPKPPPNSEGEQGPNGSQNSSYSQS

[1] = Metabolic stability in human liver microsomes assessed as intrinsic clearance at 1 uM preincubated for 10 mins followed by NADPH addition and measured for 60 mins by LC-MS/MS analysis; assay type: ADME, Microsome; details: read-out: CLH
[2] = Metabolic stability in mouse liver microsomes assessed as intrinsic clearance at 1 uM preincubated for 10 mins followed by NADPH addition and measured for 60 mins by LC-MS/MS analysis; assay type: ADME, Microsome; details: read-out: CLH
[3] = Metabolic stability in rat liver microsomes assessed as intrinsic clearance at 1 uM preincubated for 10 mins followed by NADPH addition and measured for 60 mins by LC-MS/MS analysis; assay type: ADME, Microsome; details: read-out: CLH
MV4-11 [4] = assay: Antiproliferative activity against human MV4-11 cells assessed as inhibition of cell growth incubated for 10 days and replacement with fresh media with compounds on day 5 by CTG assay; assay type: functional, cell-based
[5] = Volume of distribution in CD-1 mouse at 5 mg/kg, po or 1 mg/kg, iv administered as single dose and measured for 24 hrs by LC-MS/MS analysis; assay type: ADME, organism-based; details: in vivo
[6] = Bioavailability in CD-1 mouse at 5 mg/kg, po or 1 mg/kg, iv administered as single dose and measured for 24 hrs by LC-MS/MS analysis; assay type: ADME, organism-based; details: in vivo
[7] = biological target: Dual specificity protein kinase CLK1 (Homo sapiens, UniProt P49759); assay: Binding affinity to CLK1 (unknown origin) assessed as dissociation constant by competitive binding assay
Chain of Dual specificity protein kinase CLK1 (P49759 whole entry): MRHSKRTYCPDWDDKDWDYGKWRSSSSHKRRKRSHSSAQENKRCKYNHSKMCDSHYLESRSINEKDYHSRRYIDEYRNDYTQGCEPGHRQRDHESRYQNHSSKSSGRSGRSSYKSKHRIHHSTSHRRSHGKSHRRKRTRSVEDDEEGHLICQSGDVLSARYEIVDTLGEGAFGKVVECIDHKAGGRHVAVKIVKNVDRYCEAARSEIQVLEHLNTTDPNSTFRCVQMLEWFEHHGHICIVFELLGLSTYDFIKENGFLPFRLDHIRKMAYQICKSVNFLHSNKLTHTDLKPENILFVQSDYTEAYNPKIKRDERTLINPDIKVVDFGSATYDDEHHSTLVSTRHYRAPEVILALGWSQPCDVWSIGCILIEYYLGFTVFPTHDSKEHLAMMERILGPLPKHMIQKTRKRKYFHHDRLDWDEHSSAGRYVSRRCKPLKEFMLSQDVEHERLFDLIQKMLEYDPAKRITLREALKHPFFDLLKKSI

[8] = biological target: Dual specificity protein kinase CLK2 (Homo sapiens, UniProt P49760); assay: Binding affinity to CLK2 (unknown origin) assessed as dissociation constant by competitive binding assay
Chain of Dual specificity protein kinase CLK2 (P49760 whole entry): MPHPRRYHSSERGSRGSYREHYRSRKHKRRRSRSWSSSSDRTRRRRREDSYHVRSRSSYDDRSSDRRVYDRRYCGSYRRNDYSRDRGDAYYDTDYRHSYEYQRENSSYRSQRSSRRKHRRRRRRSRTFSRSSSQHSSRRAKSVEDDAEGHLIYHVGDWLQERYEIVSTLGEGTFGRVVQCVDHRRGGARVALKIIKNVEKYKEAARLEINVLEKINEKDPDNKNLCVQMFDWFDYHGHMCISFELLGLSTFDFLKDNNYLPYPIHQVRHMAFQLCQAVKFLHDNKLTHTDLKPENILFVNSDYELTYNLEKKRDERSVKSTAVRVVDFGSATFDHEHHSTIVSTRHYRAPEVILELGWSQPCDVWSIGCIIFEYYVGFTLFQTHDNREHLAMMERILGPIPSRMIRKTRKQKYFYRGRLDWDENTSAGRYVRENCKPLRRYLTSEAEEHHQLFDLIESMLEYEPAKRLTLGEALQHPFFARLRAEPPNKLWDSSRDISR

[9] = biological target: Glycogen synthase kinase-3 alpha (Homo sapiens, UniProt P49840); assay: Binding affinity to GSK3A (unknown origin) assessed as dissociation constant by competitive binding assay
Chain of Glycogen synthase kinase-3 alpha (P49840 whole entry): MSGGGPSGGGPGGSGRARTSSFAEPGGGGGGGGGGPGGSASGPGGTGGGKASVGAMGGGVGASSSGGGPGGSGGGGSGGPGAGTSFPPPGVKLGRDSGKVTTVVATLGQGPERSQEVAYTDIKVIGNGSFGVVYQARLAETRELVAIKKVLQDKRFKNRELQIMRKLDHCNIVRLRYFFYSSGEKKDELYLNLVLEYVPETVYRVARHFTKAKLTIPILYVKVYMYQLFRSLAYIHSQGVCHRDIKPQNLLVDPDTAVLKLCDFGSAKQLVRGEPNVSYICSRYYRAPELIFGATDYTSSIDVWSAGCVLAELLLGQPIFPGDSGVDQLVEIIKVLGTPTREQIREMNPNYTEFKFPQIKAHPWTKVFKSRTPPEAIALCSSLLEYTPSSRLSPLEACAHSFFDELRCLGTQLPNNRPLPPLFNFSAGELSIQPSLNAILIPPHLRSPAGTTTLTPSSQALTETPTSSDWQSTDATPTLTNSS

[10] = biological target: Dual specificity tyrosine-phosphorylation-regulated kinase 1B (Homo sapiens, UniProt Q9Y463); assay: Binding affinity to DYRK1B (unknown origin) assessed as dissociation constant by competitive binding assay
Chain of Dual specificity tyrosine-phosphorylation-regulated kinase 1B (Q9Y463 whole entry): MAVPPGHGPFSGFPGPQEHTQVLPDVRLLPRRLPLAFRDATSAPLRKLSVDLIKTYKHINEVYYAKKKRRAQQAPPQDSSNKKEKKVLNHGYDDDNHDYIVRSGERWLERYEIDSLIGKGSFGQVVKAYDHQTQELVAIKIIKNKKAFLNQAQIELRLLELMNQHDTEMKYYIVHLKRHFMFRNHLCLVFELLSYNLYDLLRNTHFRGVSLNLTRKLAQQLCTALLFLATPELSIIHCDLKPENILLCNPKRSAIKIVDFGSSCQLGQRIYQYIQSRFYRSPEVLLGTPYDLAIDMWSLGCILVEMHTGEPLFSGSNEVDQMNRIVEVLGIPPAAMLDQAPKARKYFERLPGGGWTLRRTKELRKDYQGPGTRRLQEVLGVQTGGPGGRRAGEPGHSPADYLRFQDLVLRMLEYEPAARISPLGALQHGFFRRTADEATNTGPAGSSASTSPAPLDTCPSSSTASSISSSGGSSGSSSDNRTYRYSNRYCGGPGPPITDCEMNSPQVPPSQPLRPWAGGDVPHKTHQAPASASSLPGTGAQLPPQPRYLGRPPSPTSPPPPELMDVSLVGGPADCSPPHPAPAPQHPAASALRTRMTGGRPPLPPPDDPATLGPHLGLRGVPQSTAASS

[11] = biological target: Glycogen synthase kinase-3 beta (Homo sapiens, UniProt P49841)
Chain of Glycogen synthase kinase-3 beta (P49841 whole entry): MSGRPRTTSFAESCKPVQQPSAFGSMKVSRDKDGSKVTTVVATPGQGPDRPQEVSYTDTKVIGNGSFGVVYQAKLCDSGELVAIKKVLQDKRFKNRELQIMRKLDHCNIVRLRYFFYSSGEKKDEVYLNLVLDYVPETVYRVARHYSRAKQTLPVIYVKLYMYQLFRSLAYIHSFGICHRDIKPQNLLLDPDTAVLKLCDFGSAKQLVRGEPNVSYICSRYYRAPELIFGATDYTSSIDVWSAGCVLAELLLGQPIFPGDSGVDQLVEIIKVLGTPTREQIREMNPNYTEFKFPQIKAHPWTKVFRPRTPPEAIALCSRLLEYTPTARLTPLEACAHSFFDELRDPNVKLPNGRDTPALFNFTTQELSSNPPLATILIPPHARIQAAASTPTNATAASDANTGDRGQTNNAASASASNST
Description: Binding affinity to GSK3B (unknown origin) assessed as dissociation constant by competitive binding assay

[12] = biological target: Phosphatidylinositol 3-kinase catalytic subunit type 3 (Homo sapiens, UniProt Q8NEB9); assay: Binding affinity to VPS34 (unknown origin) assessed as dissociation constant by competitive binding assay
Chain of Phosphatidylinositol 3-kinase catalytic subunit type 3 (Q8NEB9 whole entry): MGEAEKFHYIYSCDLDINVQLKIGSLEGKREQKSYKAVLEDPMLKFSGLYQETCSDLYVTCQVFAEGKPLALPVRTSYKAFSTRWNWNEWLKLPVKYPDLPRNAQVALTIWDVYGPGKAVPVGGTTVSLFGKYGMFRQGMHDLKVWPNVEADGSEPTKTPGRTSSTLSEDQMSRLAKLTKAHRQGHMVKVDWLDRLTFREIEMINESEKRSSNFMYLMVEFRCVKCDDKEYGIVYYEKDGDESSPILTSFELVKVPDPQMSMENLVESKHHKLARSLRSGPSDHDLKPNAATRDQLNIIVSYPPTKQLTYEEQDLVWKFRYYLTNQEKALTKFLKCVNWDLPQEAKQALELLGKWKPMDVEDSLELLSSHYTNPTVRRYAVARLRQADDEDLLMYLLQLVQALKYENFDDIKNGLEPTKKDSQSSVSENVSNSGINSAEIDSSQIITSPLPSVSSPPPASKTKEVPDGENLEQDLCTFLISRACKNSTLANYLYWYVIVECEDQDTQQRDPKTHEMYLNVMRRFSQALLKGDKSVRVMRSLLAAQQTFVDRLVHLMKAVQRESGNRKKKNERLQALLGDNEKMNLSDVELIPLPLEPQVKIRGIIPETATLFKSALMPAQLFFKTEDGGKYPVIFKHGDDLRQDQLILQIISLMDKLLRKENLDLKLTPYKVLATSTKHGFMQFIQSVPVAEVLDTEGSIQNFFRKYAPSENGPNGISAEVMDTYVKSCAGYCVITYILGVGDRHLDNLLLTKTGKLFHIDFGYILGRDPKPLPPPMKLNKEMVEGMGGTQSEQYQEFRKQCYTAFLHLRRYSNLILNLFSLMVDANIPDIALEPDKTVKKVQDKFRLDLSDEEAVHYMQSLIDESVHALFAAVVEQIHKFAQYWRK

[13] = biological target: T1, Serine/threonine-protein kinase LATS2 (Homo sapiens, UniProt Q9NRM7); assay: Binding affinity to LATS2 (unknown origin) assessed as dissociation constant by competitive binding assay
T1 sequence (Q9NRM7 whole entry): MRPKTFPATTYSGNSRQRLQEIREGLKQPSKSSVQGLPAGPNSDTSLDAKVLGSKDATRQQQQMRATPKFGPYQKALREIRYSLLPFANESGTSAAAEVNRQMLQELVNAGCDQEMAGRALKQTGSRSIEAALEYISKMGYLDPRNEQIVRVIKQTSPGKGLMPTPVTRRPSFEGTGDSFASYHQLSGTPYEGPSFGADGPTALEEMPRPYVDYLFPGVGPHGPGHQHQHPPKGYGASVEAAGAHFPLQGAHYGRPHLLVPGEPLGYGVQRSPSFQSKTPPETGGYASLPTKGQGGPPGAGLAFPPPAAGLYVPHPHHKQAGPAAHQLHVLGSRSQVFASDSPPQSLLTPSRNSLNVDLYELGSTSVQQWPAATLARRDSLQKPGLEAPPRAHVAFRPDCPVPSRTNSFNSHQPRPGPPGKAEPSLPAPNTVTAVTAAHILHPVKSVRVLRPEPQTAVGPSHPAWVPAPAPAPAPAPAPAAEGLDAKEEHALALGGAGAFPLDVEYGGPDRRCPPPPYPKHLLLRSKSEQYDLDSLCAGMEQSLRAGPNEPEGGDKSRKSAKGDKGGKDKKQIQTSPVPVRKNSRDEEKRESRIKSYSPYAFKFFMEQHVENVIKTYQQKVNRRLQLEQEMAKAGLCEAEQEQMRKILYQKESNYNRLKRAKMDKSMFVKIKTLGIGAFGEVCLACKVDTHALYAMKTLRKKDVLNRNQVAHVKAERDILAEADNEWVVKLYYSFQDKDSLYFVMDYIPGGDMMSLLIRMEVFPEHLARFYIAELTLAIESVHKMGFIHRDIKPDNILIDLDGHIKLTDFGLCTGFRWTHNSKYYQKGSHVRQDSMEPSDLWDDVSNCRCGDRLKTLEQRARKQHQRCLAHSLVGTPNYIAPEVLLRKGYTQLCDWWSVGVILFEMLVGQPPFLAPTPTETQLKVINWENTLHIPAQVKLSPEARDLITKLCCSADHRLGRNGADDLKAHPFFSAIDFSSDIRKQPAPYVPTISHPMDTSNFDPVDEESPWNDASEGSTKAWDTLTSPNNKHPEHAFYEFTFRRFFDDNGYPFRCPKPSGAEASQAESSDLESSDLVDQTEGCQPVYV

MV4-11 [14] = assay: Antitumor activity against human MV4-11 cells xenografted in BALB/c nude mouse assessed as tumor growth inhibition at 60 mg/kg, po qd administered by gavage for 17 days and measured 3 times per week by caliper method relative to control; assay type: functional; details: MV4-11, 408 h, time 17 day, read-out: TGI

Cc1n[nH]c2ccc(-c3cnn(C)c3Cc3ccc(Cl)cc3)cc12
pIC50 (CDK8/Cyclin C): 9.15
CLint scaled at 1 µM [1]: 59.2 mL/min/kg
CLint scaled at 1 µM [2]: 536 mL/min/kg

Cc1n[nH]c2ccc(-c3nnc(O)n3Cc3ccc(Cl)cc3)cc12
pIC50 (CDK8/Cyclin C): < 6.00

Cc1n[nH]c2ccc(-c3nnc(C)n3Cc3ccc(Cl)cn3)cc12
pIC50 (CDK8/Cyclin C): 7.10

Cc1n[nH]c2ccc(-c3nnc(C)n3Cc3ccc(Cl)cc3)nc12
pIC50 (CDK8/Cyclin C): 8.48

Cc1n[nH]c2ccc(-c3nnn(C)c3Cc3ccc(Cl)cc3)cc12
pIC50 (CDK8/Cyclin C): 9.40
CLint scaled at 1 µM [3]: 385 mL/min/kg
pIC50 (MV4-11 [4]): 8.32
CLint scaled at 1 µM [1]: 66.1 mL/min/kg
CLint scaled at 1 µM [2]: 823 mL/min/kg

Cc1n[nH]c2ccc(-c3nnc4n3[C@H](c3ccc(Cl)cc3)COC4)cc12
Vd [5]: 1.2 L/kg
pIC50 (CDK8/Cyclin C): 9.20
CLint scaled at 1 µM [3]: 118 mL/min/kg
bioavailability [6]: 19.4%
pIC50 (MV4-11 [4]): 8.12
CLint scaled at 1 µM [1]: 92 mL/min/kg
CLint scaled at 1 µM [2]: 720 mL/min/kg

Cc1n[nH]c2ccc(-c3nnc(C)n3C(C)c3ccc(Cl)cc3)cc12 (stereo not given)
pIC50 (CDK8/Cyclin C): 6.56

Cc1n[nH]c2ccc(-c3nnc4n3[C@H](c3ccc(Cl)cc3)CN(C)C4)cc12
pIC50 (CDK8/Cyclin C): 9.08
pIC50 (MV4-11 [4]): 8.21

CNc1n[nH]c2ccc(-c3nnc4n3C(c3ccc(Cl)cc3)CC4)cc12 (racemic)
pIC50 (CDK8/Cyclin C): 8.27

Cc1n[nH]c2ccc(-c3nnc4n3[C@H](c3ccc(Cl)cc3)CC4)nc12
Vd [5]: 0.4 L/kg
pKd [7]: 7.15
pKd [8]: 7.19
pKd [9]: 7.13
pKd [10]: 5.89
pIC50 (CDK8/Cyclin C): 9.05
CLint scaled at 1 µM [3]: 270 mL/min/kg
bioavailability [6]: 63.7%
pKd [11]: 7.41
pKd [12]: 7.70
pIC50 (MV4-11 [4]): 7.93
CLint scaled at 1 µM [1]: < 8.6 mL/min/kg
CLint scaled at 1 µM [2]: 339 mL/min/kg
pKd [13]: 6.34

Cc1n[nH]c2ncc(-c3nnc(C)n3Cc3ccc(Cl)cc3)cc12
pIC50 (CDK8/Cyclin C): 7.77

Cc1nnc(-c2ccc3[nH]nc(Cl)c3c2)n1Cc1ccc(Cl)cc1
Vd [5]: 2.7 L/kg
pIC50 (CDK8/Cyclin C): 9.06
CLint scaled at 1 µM [3]: 54.5 mL/min/kg
bioavailability [6]: 50.8%
pIC50 (MV4-11 [4]): 7.14
CLint scaled at 1 µM [1]: 10.8 mL/min/kg
CLint scaled at 1 µM [2]: 273 mL/min/kg

Cc1n[nH]c2ccc(-c3ncc(C)n3Cc3ccc(Cl)cc3)cc12
pIC50 (CDK8/Cyclin C): 8.14
pIC50 (MV4-11 [4]): 6.43

Cc1c(Br)c(Br)c2c3c1nc(N1CCNCC1)n3CCC2 [SEL-120 FREE BASE]
pIC50 (CDK8/Cyclin C): 7.85
pIC50 (MV4-11 [4]): 6.60
inhibition in vivo at 60 mg/kg (MV4-11 [14]): 55.6%

CNc1n[nH]c2ncc(-c3nnc4n3C(c3ccc(Cl)cc3)CC4)cc12 (racemic)
pIC50 (CDK8/Cyclin C): 7.45

Cc1n[nH]c2ccc(-c3nnc(C(F)(F)F)n3Cc3ccc(Cl)cc3)cc12
pIC50 (CDK8/Cyclin C): 8.32

Cc1n[nH]c2ccc(-c3nnc(C)n3Cc3ccc(C#N)cc3)cc12
pIC50 (CDK8/Cyclin C): 8.21

Cc1n[nH]c2ccc(-c3nnc4n3[C@H](c3ccc(Cl)cc3)CNC4)cc12
pIC50 (CDK8/Cyclin C): 9.32
CLint scaled at 1 µM [1]: 64.9 mL/min/kg
CLint scaled at 1 µM [2]: 1310 mL/min/kg

Cc1n[nH]c2ccc(-c3nnc4n3[C@H](c3ccc(Cl)cc3)CCC4)cc12
pIC50 (CDK8/Cyclin C): 9.43
CLint scaled at 1 µM [1]: 87.1 mL/min/kg
CLint scaled at 1 µM [2]: 843 mL/min/kg

Cc1n[nH]c2ccc(-c3nnc(C)n3Cc3ccc(Cl)cc3)cc12
Vd [5]: 0.8 L/kg
pKd [7]: 7.37
pKd [8]: 7.44
pKd [9]: 6.92
pKd [10]: 5.85
pIC50 (CDK8/Cyclin C): 9.31
CLint scaled at 1 µM [3]: 54.4 mL/min/kg
bioavailability [6]: 82.1%
pKd [11]: 7.25
pKd [12]: 5.74
pIC50 (MV4-11 [4]): 8.07
CLint scaled at 1 µM [1]: 12.2 mL/min/kg
CLint scaled at 1 µM [2]: 342 mL/min/kg
pKd [13]: 7.42

Cc1n[nH]c2ccc(-c3nnc4n3[C@H](c3ccc(Cl)cc3)CC4)cc12
Vd [5]: 0.7 L/kg
pKd [7]: 7.82
pKd [8]: 8.68
pKd [9]: 8.37
pKd [10]: 6.48
pIC50 (CDK8/Cyclin C): 9.40
CLint scaled at 1 µM [3]: 151 mL/min/kg
bioavailability [6]: 63.7%
pKd [12]: 7.17
pIC50 (MV4-11 [4]): 8.62
CLint scaled at 1 µM [1]: 23.1 mL/min/kg
CLint scaled at 1 µM [2]: 540 mL/min/kg
pKd [13]: 7.74

COc1nnc(-c2ccc3[nH]nc(C)c3c2)n1Cc1ccc(Cl)cc1
pIC50 (CDK8/Cyclin C): 7.08

Cc1n[nH]c2ncc(-c3nnc4n3[C@H](c3ccc(Cl)cc3)CC4)cc12
Vd [5]: 0.7 L/kg
pKd [7]: 7.07
pKd [8]: 7.09
pKd [9]: 8.19
pKd [10]: 5.68
pIC50 (CDK8/Cyclin C): 8.82
CLint scaled at 1 µM [3]: 104 mL/min/kg
bioavailability [6]: 63.4%
pKd [11]: 8.42
pKd [12]: 5.54
pIC50 (MV4-11 [4]): 7.61
CLint scaled at 1 µM [1]: < 8.6 mL/min/kg
CLint scaled at 1 µM [2]: 368 mL/min/kg
pKd [13]: 6.14
